Measured values reported in patent US20070225363A1, “Methods and Agents for Inhibiting Dynamin-Dependent Endocytosis” (the University of Newcastle Research Associates Ltd., priority 2003, published 2007).

Legend:
Rab3A = target: T1, Rab3A (Homo sapiens, UniProt P20336); assay: [α-32P]-GTP binding to small G protein Rab3A; settings: data not shown
T1 sequence (P20336 1-220): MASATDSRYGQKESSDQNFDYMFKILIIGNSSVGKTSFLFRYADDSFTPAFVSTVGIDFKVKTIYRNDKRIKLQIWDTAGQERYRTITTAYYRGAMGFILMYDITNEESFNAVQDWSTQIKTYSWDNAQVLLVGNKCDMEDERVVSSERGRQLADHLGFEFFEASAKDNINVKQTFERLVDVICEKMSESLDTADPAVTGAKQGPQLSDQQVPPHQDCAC
Method: Competition of these drugs with GTP for the active site of 4 small G proteins (Rab3A, Ras, Arf2, RalA) was also tested.

ΔPH domain dynamin I = assay: GTPase assay with recombinant dynamin I lacking the PH domain; format: biochemical
Method: (§1) The plasmid for GST-Amph2-SH3 (muscle Amph2) (Butler et al., 1997) was provided by Pieto DeCamilli, Yale, Connecticut, USA, in pGEX2T vectors. The plasmid was grown in E. coli and the GST-Amph2-SH3 fusion protein was purified on glutathione (GSH)-Sepharose by elution with 10 mM reduced GSH in 20 mM Tris-HCl, pH 7.5, dialysed against the same buffer without GSH and stored at 4° C. Dynamin was purified from sheep brain by extraction from the peripheral membrane fraction of whole brain (Robinson et al., 1993) and affinity purification on GST-Amph2-SH3-sepharose as previously described (Marks and McMahon., 1998), yielding 8 mg protein from 250 g sheep brain. Recombinant dynamin II was expressed in insect cells and was a gift from Dr Sandra Schmid (Scripps, San Diego, Calif.). Recombinant dynamin I lacking the PH domain (dynamin PH, provided by Robin Scaife) was expressed in insect cells using baculoviral infection (Salim et al., 1996).
Dynamin GTPase activity was determined by hydrolysis of [ ? -^32P]GTP by a method modified from that described previously (Robinson et al., 1993). Briefly, purified dynamin I or dynamin II (0.2 μg/tube) was incubated in GTPase buffer (10 mM Tris, 10 mM NaCl, 2 mM Mg^2+, 0.05% Tween 80, pH 7.4, 1 μg/ml leupeptin and 0.1 mM PMSF) and a GTP cocktail containing 0.3 mM GTP and 1.3 μCi [ ? -^32P]-GTP in the presence or absence of varying concentrations of inhibitors or DMSO vehicle for 10 min at 30 C. The final assay volume was 40 μl. Dynamin activity was measured as either basal or phospholipid-stimulated with the addition of 5 μg/ml L-phosphatidylserine. The reaction was terminated with 100 μl of GTPase stop buffer (2% formic add, 8% acetic acid, pH 1.9), followed by 600 μl of acid-washed charcoal solution (7% charcoal in acidic solution (w/v)) and 100 μl BSA (5 mg/ml). After centrifuging for 5 min (13,000 rpm at room temperature), 200 μl of each supernatant was counted in a -counter for the release of ^32Pi from [ ? -^32P]-GTP. […]

[1] = tested on: isolated nerve terminals (synaptosomes); assay: Synaptic vesicle endocytosis, FM2-10 uptake in synaptosomes; format: cell-based, rat; settings: 100 μM, synaptosomes
Method: Isolated nerve terminals (synaptosomes) were prepared from rat cerebral cortex by centrifugation on discontinuous percoll gradients (Dunkley et al., 1986). Fractions 3 and 4 were pooled and used in all experiments. Endocytosis was measured using uptake of the fluorescent dye FM2-10 as previously described (Cousin and Robinson 2000a). Synaptosomes (0.6 mg in 2 ml) were incubated for 5 min at 37° C. in plus or minus Ca^2+ Krebs-like solution. FM2-10 ([…]) was added 1 min before stimulation with 30 mM KCl (S1). As FM2-10 is taken up by vesicles via endocytosis at the S1 phase of stimulation, synaptosomes were incubated with antagonists during this phase. […] After 2 min of stimulation synaptosomes were washed twice in plus Ca^2+ solution containing 1 mg/ml bovine serum albumin. The washing steps remove non-internalised FM2-10 and the tyrphostins. Washed synaptosomes were resuspended in plus Ca^2+ solution at 37° C., transferred to a fluorimeter cuvette and stimulated with a standard addition of 30 mM KCl (S2). The standard S2 stimulation releases all accumulated FM2-10 and allows endocytosis to be measured as the decrease in FM2-10 fluorescence due to dye release into solution (excitation 488 nm, emission 540 nm).
Endocytosis was calculated as the decrease in absolute fluorescence stimulated by 30 mM KCl at S2. […] Retrieval efficiency is a more accurate measure of endocytosis since it takes into account the amount of prior exocytosis. Retrieval efficiency was calculated as endocytosis/exocytosis, where endocytosis is defined as above and exocytosis as Ca^2+-dependent glutamate release after 2 min of stimulation. The retrieval efficiency value was normalised to a ratio of 1.0 for 30 mM KCl.

dynamin II = target: T2, dynamin II (Rattus norvegicus, UniProt P39052); assay: Dynamin II GTPase assay ([γ-32P]GTP hydrolysis); format: biochemical; settings: GTPase activity, FIG. 1e
T2 construct: made in house; host or cells: insect cells
T2 sequence (P39052 1-870): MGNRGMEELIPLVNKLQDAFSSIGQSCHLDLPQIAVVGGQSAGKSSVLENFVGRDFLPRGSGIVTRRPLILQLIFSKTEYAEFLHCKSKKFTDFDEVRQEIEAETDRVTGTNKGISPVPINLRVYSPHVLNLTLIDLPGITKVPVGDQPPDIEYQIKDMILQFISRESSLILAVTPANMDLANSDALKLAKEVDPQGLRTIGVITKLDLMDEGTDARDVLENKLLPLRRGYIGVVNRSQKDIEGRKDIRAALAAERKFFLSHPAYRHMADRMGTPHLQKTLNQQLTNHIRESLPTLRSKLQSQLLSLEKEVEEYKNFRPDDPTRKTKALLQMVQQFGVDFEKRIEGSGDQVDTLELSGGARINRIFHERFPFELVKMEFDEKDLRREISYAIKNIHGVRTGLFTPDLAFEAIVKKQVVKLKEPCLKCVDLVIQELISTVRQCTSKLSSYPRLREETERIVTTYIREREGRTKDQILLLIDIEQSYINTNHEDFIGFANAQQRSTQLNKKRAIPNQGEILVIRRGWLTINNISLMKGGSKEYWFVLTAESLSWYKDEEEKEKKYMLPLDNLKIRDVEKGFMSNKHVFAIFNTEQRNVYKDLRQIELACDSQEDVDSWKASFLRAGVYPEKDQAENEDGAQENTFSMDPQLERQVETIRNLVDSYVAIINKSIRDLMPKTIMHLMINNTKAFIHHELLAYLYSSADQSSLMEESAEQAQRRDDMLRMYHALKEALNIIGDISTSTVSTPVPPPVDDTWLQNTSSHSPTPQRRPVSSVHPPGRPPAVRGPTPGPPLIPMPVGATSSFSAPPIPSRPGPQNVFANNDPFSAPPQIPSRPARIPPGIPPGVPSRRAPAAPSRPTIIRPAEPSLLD
Method: as §1
Dynamin GTPase activity was determined by hydrolysis of [ ? -^32P]GTP by a method modified from that described previously (Robinson et al., 1993). […] Dynamin activity was measured as either basal or phospholipid-stimulated with the addition of 5 μg/ml L-phosphatidylserine. […] After centrifuging for 5 min (13,000 rpm at room temperature), 200 μl of each supernatant was counted in a -counter for the release of ^32Pi from [ ? -^32P]-GTP.

N#C/C(=C\c1ccc(O)c(O)c1)C(=O)NCCCNC(=O)/C(C#N)=C/c1ccc(O)c(O)c1 [bis-tyrphostin]
effect on [α-32P]-GTP binding to Rab3A (Rab3A): neither drug affected | ability to inhibit GTPase activity of dynamin I lacking the PH domain (ΔPH domain dynamin I): still inhibits | inhibition of ΔPH domain dynamin I GTP hydrolysis (ΔPH domain dynamin I; at 10 μM): more than 50% | inhibition of synaptic vesicle endocytosis (SVE) [1]: specifically decreases endocytosis | inhibition of synaptic vesicle endocytosis (SVE) ([1]; listed as Bis-tyrphostin): significantly inhibited | IC50 (dynamin II): 500 nM
